Test results from ChEMBL document CHEMBL4811270, “Nitrile-based peptoids as cysteine protease inhibitors” (Bioorg Med Chem, 2021).
pKi: −log10 of the molar value.

These molecules were tested against Cruzipain (Trypanosoma cruzi, UniProt P25779) (assay: Inhibition of Trypanosoma cruzi cruzain using Z-FR-AMC as substrate by fluorescence assay).
Sequence of Cruzipain (P25779 whole entry): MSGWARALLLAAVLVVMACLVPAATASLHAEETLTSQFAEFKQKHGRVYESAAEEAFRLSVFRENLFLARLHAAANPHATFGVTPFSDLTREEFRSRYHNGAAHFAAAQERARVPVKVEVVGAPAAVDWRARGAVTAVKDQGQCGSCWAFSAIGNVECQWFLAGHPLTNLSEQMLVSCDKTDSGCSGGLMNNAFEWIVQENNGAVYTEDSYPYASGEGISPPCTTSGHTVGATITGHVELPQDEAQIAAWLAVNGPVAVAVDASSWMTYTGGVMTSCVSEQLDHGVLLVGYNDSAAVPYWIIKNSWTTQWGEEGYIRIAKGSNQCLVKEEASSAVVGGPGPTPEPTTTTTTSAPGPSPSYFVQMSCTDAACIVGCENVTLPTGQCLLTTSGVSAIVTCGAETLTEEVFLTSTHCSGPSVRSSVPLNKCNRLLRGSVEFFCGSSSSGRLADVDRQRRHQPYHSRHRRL
In the case of `N#CC1(NC(=O)CN(Cc2ccccc2)C(=O)c2ccc(-c3ccccc3)cc2)CC1`, the pKi was 6.60. For `COc1ccc(-c2ccc(C(=O)N(CC(=O)NCC#N)Cc3ccccc3)cc2)cc1`, the pKi was 5.30. `Cn1nc(C(C)(C)C)cc1C(=O)N(CC(=O)NC1(C#N)CC1)Cc1ccccc1` gave a pKi of 5.20. `N#CC1(NC(=O)CN(Cc2ccccc2)C(=O)c2ccccc2)CC1` gave a pKi of 5.10. In the case of `N#CCNC(=O)CN(Cc1ccccc1)C(=O)c1ccccc1`, the pKi was 5.20. `Cn1nc(C(C)(C)C)cc1C(=O)N(CC(=O)NCC#N)Cc1cccc(Cl)c1` gave a pKi of 6.80. `CC(C)(C#N)NC(=O)CN(Cc1ccccc1)C(=O)c1ccccc1` showed a pKi of 5.20. `N#CC1(NC(=O)[C@H](Cc2ccccc2)NC(=O)c2ccccc2)CC1` showed a pKi of 6.70. Work on `N#CCNC(=O)CN(Cc1ccccc1)C(=O)c1ccc(-c2ccccc2)cc1` yielded a pKi of 5.50. In the case of `COc1ccc(-c2ccc(C(=O)N(CC(=O)NC3(C#N)CC3)Cc3ccccc3)cc2)cc1`, the pKi was 5.00. `N#CC1(NC(=O)CN(Cc2ccccc2)C(=O)Cc2ccccc2)CC1` gave a pKi of 5.60.

Each molecule was assayed against T1, Procathepsin L (Homo sapiens, UniProt P07711) (assay: Inhibition of recombinant human liver CatL using Z-FR-AMC as substrate by fluorescence assay).
Target sequence in this assay (P07711 whole entry): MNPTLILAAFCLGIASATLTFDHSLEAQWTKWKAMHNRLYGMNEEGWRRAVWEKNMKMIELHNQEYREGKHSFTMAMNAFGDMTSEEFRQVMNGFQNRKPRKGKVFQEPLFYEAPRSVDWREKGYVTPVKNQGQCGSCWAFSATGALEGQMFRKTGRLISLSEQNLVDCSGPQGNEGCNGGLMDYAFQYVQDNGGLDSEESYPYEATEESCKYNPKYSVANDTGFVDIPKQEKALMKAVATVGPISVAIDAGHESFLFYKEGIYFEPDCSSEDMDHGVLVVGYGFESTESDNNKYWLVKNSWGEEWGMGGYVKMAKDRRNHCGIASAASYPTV
`N#CCNC(=O)CN(Cc1ccccc1)C(=O)c1ccccc1` showed a pKi of 6.20. For `N#CCNC(=O)CN(Cc1ccccc1)C(=O)c1ccc(-c2ccccc2)cc1`, the pKi was 5.00. Work on `Cn1nc(C(C)(C)C)cc1C(=O)N(CC(=O)N[C@H](C#N)Cc1ccccc1)Cc1ccccc1` yielded a pKi of 5.50. `N#CCNC(=O)CN(Cc1ccccc1)S(=O)(=O)c1cccc(Cl)c1` was tested, and the pKi was 5.60. Work on `N#CCNC(=O)CN(Cc1ccccc1)C(=O)c1cccc(I)c1` yielded a pKi of 5.20.

The molecules below were run against T2, Cathepsin B (Homo sapiens, UniProt P07858) (assay: Inhibition of recombinant human liver CatB using Z-FR-AMC as substrate by fluorescence assay).
Molecule `N#CC1(NC(=O)CN(Cc2ccccc2)C(=O)c2ccc(-c3ccccc3)cc2)CC1` has a pKi of 5.50. `Cn1nc(C(C)(C)C)cc1C(=O)N(CC(=O)NC1(C#N)CC1)Cc1ccccc1` gave a pKi of 5.40. Molecule `Cn1nc(C(C)(C)C)cc1C(=O)N(CC(=O)NCC#N)Cc1cccc(Cl)c1` has a pKi of 5.10. Molecule `N#CC1(NC(=O)[C@H](Cc2ccccc2)NC(=O)c2ccccc2)CC1` has a pKi of 5.10.

Each molecule was assayed against T3, Cathepsin K (Homo sapiens, UniProt P43235) (assay: Inhibition of recombinant human liver CatK using Z-FR-AMC as substrate by fluorescence assay).
T3 sequence (P43235 whole entry): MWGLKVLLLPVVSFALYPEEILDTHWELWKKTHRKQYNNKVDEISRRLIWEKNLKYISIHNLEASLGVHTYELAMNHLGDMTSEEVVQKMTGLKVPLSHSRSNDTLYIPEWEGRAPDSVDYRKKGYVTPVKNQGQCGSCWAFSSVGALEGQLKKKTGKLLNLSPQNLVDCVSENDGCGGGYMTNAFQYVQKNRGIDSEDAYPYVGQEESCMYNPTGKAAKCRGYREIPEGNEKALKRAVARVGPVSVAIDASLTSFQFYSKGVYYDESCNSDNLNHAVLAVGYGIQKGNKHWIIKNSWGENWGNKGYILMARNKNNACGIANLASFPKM
In the case of `COc1ccc(-c2ccc(C(=O)N(CC(=O)NCC#N)Cc3ccccc3)cc2)cc1`, the pKi was 5.60. In the case of `N#CC1(NC(=O)CN(Cc2ccccc2)C(=O)c2ccccc2)CC1`, the pKi was 6.40. `CC(C)(C#N)NC(=O)CN(Cc1ccccc1)C(=O)c1ccccc1` showed a pKi of 6.60. Molecule `Cn1nc(C(C)(C)C)cc1C(=O)N(CC(=O)N[C@H](C#N)Cc1ccccc1)Cc1ccccc1` has a pKi of 6.50. For `COc1ccc(-c2ccc(C(=O)N(CC(=O)NC3(C#N)CC3)Cc3ccccc3)cc2)cc1`, the pKi was 5.00.

These molecules were tested against T4, Cathepsin S (Homo sapiens, UniProt P25774) (assay: Inhibition of recombinant human liver CatS using Z-FR-AMC as substrate by fluorescence assay).
Target sequence in this assay (P25774 whole entry): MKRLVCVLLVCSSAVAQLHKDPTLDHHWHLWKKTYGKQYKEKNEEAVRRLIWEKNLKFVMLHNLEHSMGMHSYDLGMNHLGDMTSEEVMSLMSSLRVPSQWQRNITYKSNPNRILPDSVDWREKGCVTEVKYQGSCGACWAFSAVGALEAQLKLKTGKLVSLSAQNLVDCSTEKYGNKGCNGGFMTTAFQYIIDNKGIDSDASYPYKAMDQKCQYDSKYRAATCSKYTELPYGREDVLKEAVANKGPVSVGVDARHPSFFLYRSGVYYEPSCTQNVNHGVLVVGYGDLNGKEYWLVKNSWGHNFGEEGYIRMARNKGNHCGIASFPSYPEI
With `COc1ccc(-c2ccc(C(=O)N(CC(=O)NCC#N)Cc3ccccc3)cc2)cc1` the pKi was 6.10. For `N#CC1(NC(=O)CN(Cc2ccccc2)C(=O)c2ccccc2)CC1`, the pKi was 5.30. Molecule `N#CCNC(=O)CN(Cc1ccccc1)C(=O)c1ccccc1` has a pKi of 5.30. Work on `CC(C)(C#N)NC(=O)CN(Cc1ccccc1)C(=O)c1ccccc1` yielded a pKi of 5.10. `N#CCNC(=O)CN(Cc1ccccc1)C(=O)c1ccc(-c2ccccc2)cc1` was tested, and the pKi was 5.20. Work on `N#CCNC(=O)CN(Cc1ccccc1)S(=O)(=O)c1cccc(Cl)c1` yielded a pKi of 5.70. With `COc1ccc(-c2ccc(C(=O)N(CC(=O)NC3(C#N)CC3)Cc3ccccc3)cc2)cc1` the pKi was 5.40. `N#CCNC(=O)CN(Cc1ccccc1)C(=O)c1cccc(I)c1` showed a pKi of 5.00.

The molecules below were run against Cruzipain (Trypanosoma cruzi) (UniProt P25779) (assay: Inhibition of Trypanosoma cruzi cruzain at 10 uM using Z-FR-AMC as substrate by fluorescence assay relative to control).
Sequence of Cruzipain (Trypanosoma cruzi) (P25779 123-467 limits assumed): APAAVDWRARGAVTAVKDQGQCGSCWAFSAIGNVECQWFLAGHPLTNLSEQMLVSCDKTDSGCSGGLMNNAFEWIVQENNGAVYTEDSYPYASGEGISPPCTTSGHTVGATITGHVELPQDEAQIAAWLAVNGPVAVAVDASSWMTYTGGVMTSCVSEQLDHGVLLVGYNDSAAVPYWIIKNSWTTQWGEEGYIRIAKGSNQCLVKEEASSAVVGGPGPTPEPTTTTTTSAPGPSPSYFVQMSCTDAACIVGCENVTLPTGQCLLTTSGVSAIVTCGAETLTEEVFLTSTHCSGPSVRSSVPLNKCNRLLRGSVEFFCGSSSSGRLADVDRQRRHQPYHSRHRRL
In the case of `Cn1nc(C(C)(C)C)cc1C(=O)N(CC(=O)NCC#N)Cc1ccccc1`, the inhibition was greater than 95%. `Cn1nc(C(C)(C)C)cc1C(=O)N(CC(=O)N[C@H](C#N)Cc1ccccc1)Cc1ccccc1` gave an inhibition of 87%. Molecule `N#CCNC(=O)CN(Cc1ccccc1)S(=O)(=O)c1cccc(Cl)c1` has an inhibition of 87%. `N#CCNC(=O)CN(Cc1ccccc1)C(=O)c1cccc(I)c1` gave an inhibition of 34%.

These molecules were tested against T1, Procathepsin L (assay: Inhibition of recombinant human liver CatL at 10 uM using Z-FR-AMC as substrate by fluorescence assay relative to control).
Target sequence in this assay (P07711 114-333 limits assumed): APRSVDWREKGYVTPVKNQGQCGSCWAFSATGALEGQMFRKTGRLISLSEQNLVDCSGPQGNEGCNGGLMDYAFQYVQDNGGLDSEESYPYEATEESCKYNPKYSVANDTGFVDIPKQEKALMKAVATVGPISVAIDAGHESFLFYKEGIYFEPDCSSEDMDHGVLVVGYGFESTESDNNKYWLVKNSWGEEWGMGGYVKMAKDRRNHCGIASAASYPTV
`N#CC1(NC(=O)CN(Cc2ccccc2)C(=O)c2ccc(-c3ccccc3)cc2)CC1` was tested, and the inhibition was greater than 95%. `Cn1nc(C(C)(C)C)cc1C(=O)N(CC(=O)NCC#N)Cc1ccccc1` gave an inhibition of 88%. `COc1ccc(-c2ccc(C(=O)N(CC(=O)NCC#N)Cc3ccccc3)cc2)cc1` was tested, and the inhibition was greater than 95%. With `Cn1nc(C(C)(C)C)cc1C(=O)N(CC(=O)NC1(C#N)CC1)Cc1ccccc1` the inhibition was 85%. Molecule `N#CC1(NC(=O)CN(Cc2ccccc2)C(=O)c2ccccc2)CC1` has an inhibition of 82%. For `Cn1nc(C(C)(C)C)cc1C(=O)N(CC(=O)NCC#N)Cc1cccc(Cl)c1`, the inhibition was greater than 95%. Work on `CC(C)(C#N)NC(=O)CN(Cc1ccccc1)C(=O)c1ccccc1` yielded an inhibition greater than 95%. `COc1ccc(-c2ccc(C(=O)N(CC(=O)NC3(C#N)CC3)Cc3ccccc3)cc2)cc1` gave an inhibition of 68%. Work on `N#CC1(NC(=O)CN(Cc2ccccc2)C(=O)Cc2ccccc2)CC1` yielded an inhibition of 87%.

These molecules were tested against T2, Cathepsin B (assay: Inhibition of recombinant human liver CatB at 10 uM using Z-FR-AMC as substrate by fluorescence assay relative to control).
Molecule `Cn1nc(C(C)(C)C)cc1C(=O)N(CC(=O)NCC#N)Cc1ccccc1` has an inhibition of 93%. `COc1ccc(-c2ccc(C(=O)N(CC(=O)NCC#N)Cc3ccccc3)cc2)cc1` gave an inhibition of 83%. For `N#CC1(NC(=O)CN(Cc2ccccc2)C(=O)c2ccccc2)CC1`, the inhibition was 91%. `N#CCNC(=O)CN(Cc1ccccc1)C(=O)c1ccccc1` gave an inhibition of 85%. `CC(C)(C#N)NC(=O)CN(Cc1ccccc1)C(=O)c1ccccc1` showed an inhibition of 90%. `N#CCNC(=O)CN(Cc1ccccc1)C(=O)c1ccc(-c2ccccc2)cc1` was tested, and the inhibition was 66%. Work on `Cn1nc(C(C)(C)C)cc1C(=O)N(CC(=O)N[C@H](C#N)Cc1ccccc1)Cc1ccccc1` yielded an inhibition of 80%. Molecule `N#CCNC(=O)CN(Cc1ccccc1)S(=O)(=O)c1cccc(Cl)c1` has an inhibition greater than 95%. `COc1ccc(-c2ccc(C(=O)N(CC(=O)NC3(C#N)CC3)Cc3ccccc3)cc2)cc1` gave an inhibition of 78%. `N#CC1(NC(=O)CN(Cc2ccccc2)C(=O)Cc2ccccc2)CC1` gave an inhibition greater than 95%. `N#CCNC(=O)CN(Cc1ccccc1)C(=O)c1cccc(I)c1` was tested, and the inhibition was 87%.

What follows are molecules tested against T5, Cathepsin K (Homo sapiens) (UniProt P43235) (assay: Inhibition of recombinant human liver CatK at 10 uM using Z-FR-AMC as substrate by fluorescence assay relative to control).
T5 sequence (whole entry): T3 sequence (P43235 whole entry)
Work on `N#CC1(NC(=O)CN(Cc2ccccc2)C(=O)c2ccc(-c3ccccc3)cc2)CC1` yielded an inhibition greater than 95%. With `Cn1nc(C(C)(C)C)cc1C(=O)N(CC(=O)NCC#N)Cc1ccccc1` the inhibition was 58%. For `Cn1nc(C(C)(C)C)cc1C(=O)N(CC(=O)NC1(C#N)CC1)Cc1ccccc1`, the inhibition was 54%. Work on `N#CCNC(=O)CN(Cc1ccccc1)C(=O)c1ccccc1` yielded an inhibition greater than 95%. In the case of `Cn1nc(C(C)(C)C)cc1C(=O)N(CC(=O)NCC#N)Cc1cccc(Cl)c1`, the inhibition was greater than 95%. `N#CCNC(=O)CN(Cc1ccccc1)C(=O)c1ccc(-c2ccccc2)cc1` was tested, and the inhibition was 86%. Work on `N#CCNC(=O)CN(Cc1ccccc1)S(=O)(=O)c1cccc(Cl)c1` yielded an inhibition of 68%. `N#CC1(NC(=O)CN(Cc2ccccc2)C(=O)Cc2ccccc2)CC1` showed an inhibition of 58%. `N#CCNC(=O)CN(Cc1ccccc1)C(=O)c1cccc(I)c1` was tested, and the inhibition was greater than 95%.

The molecules below were run against T4, Cathepsin S (assay: Inhibition of recombinant human liver CatS at 10 uM using Z-FR-AMC as substrate by fluorescence assay relative to control).
Target sequence in this assay (P25774 115-331 limits assumed): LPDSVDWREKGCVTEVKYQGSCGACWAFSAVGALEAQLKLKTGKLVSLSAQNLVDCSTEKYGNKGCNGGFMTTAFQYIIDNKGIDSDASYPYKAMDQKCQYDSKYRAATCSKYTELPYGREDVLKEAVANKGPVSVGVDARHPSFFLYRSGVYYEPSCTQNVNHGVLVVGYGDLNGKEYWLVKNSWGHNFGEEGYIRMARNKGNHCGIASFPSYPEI
`N#CC1(NC(=O)CN(Cc2ccccc2)C(=O)c2ccc(-c3ccccc3)cc2)CC1` gave an inhibition of 89%. `Cn1nc(C(C)(C)C)cc1C(=O)N(CC(=O)NCC#N)Cc1ccccc1` was tested, and the inhibition was 84%. Molecule `Cn1nc(C(C)(C)C)cc1C(=O)N(CC(=O)NC1(C#N)CC1)Cc1ccccc1` has an inhibition greater than 95%. In the case of `Cn1nc(C(C)(C)C)cc1C(=O)N(CC(=O)NCC#N)Cc1cccc(Cl)c1`, the inhibition was greater than 95%. Molecule `Cn1nc(C(C)(C)C)cc1C(=O)N(CC(=O)N[C@H](C#N)Cc1ccccc1)Cc1ccccc1` has an inhibition of 84%. Molecule `N#CC1(NC(=O)CN(Cc2ccccc2)C(=O)Cc2ccccc2)CC1` has an inhibition greater than 95%.
